{
  "source": "patent US4871571A",
  "about": "“Dietetic foodstuff containing low calorie bulking agent” (Novo Industri A/S, priority 1987, dated 1989)",
  "key": {"rats [1]": {"system": "rats", "conditions": "rat, in vivo", "protocol": "The control diet consisted of the following ingredients in the indicated ratios:\nFour other diets were prepared by substituting for corn starch corresponding to 10% by weight of the entire control diet equal amounts respectively: of the bulking agent according to the invention; Neosugar; Polydextrose; and sucrose.\nGroups comprising five rats in each group were fed with these diets, and the digestible dry matter was measured after a preliminary period of 10 days by differential gravimetric determination."}, "rats [2]": {"system": "rats", "assay": "Weight increase of rats after an additional 6 weeks and digestibility calculated from it", "type": "in vivo", "conditions": "after an additional 6 weeks, diet with 10% of substance", "experimental": "Later, after an additional 6 weeks the weight increase was measured.\nThe percentual weight difference, y % of the bulking agent, taking the sucrose as a control with an assumed digestibility of 100%, thus can be calculated according to the equation: [formula]\nAs the bulking agent is only 10% of the diet, the digestibility, x %, can be calculated according to the equation: […]\nThe digestibility of Polydextose and Neosugar can be calculated in a similar manner. In the following table the calculated 6 weeks digestibilities of the bulking agents are shown."}, "[3]": {"conditions": "10% w/w aqueous solution", "protocol": "After given storage periods of 2,6,24 hours the percentage decomposition was measured according to the formula [formula] wherein DP2^+ is the amount of oligomers with a DP of 2 or more."}},
  "note": "Read-outs that look alike come from different tables or passages of the source.",
  "data": [
    {"molecule": "Polydextrose", "values": [
      {"measurement": "Digestible dry matter of diet, mean", "setting": "rats [1]", "value": 91.8, "unit": "%"},
      {"measurement": "Digestible dry matter of the bulking agent, x %", "setting": "rats [1]", "value": 68, "unit": "%"}
    ]},
    {"molecule": "OC[C@H]1O[C@@](CO)(O[C@H]2O[C@H](CO)[C@@H](O)[C@H](O)[C@H]2O)[C@@H](O)[C@@H]1O", "note": "[Sucrose, sucrose]", "values": [
      {"measurement": "Average weight increase", "setting": "rats [2]", "value": 220.11, "unit": "g"},
      {"measurement": "percentage decomposition", "setting": "[3]; 2 h, pH 5", "value": 0, "unit": "%"},
      {"measurement": "percentage decomposition", "setting": "[3]; 2 h, pH 6", "value": 0, "unit": "%"},
      {"measurement": "percentage decomposition", "setting": "[3]; 2 h, pH 7", "value": 0, "unit": "%"},
      {"measurement": "percentage decomposition", "setting": "[3]; 5 h, pH 2", "value": 97.2, "unit": "%"},
      {"measurement": "percentage decomposition", "setting": "[3]; 5 h, pH 3", "value": 31.8, "unit": "%"},
      {"measurement": "percentage decomposition", "setting": "[3]; 5 h, pH 4", "value": 5.8, "unit": "%"},
      {"measurement": "percentage decomposition", "setting": "[3]; 5 h, pH 5", "value": 0, "unit": "%"},
      {"measurement": "percentage decomposition", "setting": "[3]; 5 h, pH 6", "value": 0, "unit": "%"},
      {"measurement": "percentage decomposition", "setting": "[3]; 5 h, pH 7", "value": 0, "unit": "%"},
      {"measurement": "percentage decomposition", "setting": "[3]; 6 h, pH 2", "value": 15.0, "unit": "%"},
      {"measurement": "percentage decomposition", "setting": "[3]; 6 h, pH 3", "value": 3.7, "unit": "%"},
      {"measurement": "percentage decomposition", "setting": "[3]; 6 h, pH 4", "value": 0, "unit": "%"},
      {"measurement": "percentage decomposition", "setting": "[3]; 6 h, pH 5", "value": 0, "unit": "%"},
      {"measurement": "percentage decomposition", "setting": "[3]; 6 h, pH 6", "value": 0, "unit": "%"},
      {"measurement": "percentage decomposition", "setting": "[3]; 6 h, pH 7", "value": 0, "unit": "%"},
      {"measurement": "percentage decomposition", "setting": "[3]; 24 h, pH 5", "value": 0, "unit": "%"},
      {"measurement": "percentage decomposition", "setting": "[3]; 24 h, pH 6", "value": 0, "unit": "%"},
      {"measurement": "percentage decomposition", "setting": "[3]; 24 h, pH 7", "value": 0, "unit": "%"},
      {"measurement": "percentage decomposition", "setting": "[3]; 48 h, pH 2", "value": 100, "unit": "%"},
      {"measurement": "percentage decomposition", "setting": "[3]; 48 h, pH 3", "value": 77.2, "unit": "%"},
      {"measurement": "percentage decomposition", "setting": "[3]; 48 h, pH 4", "value": 10.8, "unit": "%"},
      {"measurement": "percentage decomposition", "setting": "[3]; 48 h, pH 5", "value": 1.6, "unit": "%"},
      {"measurement": "percentage decomposition", "setting": "[3]; 48 h, pH 6", "value": 0, "unit": "%"},
      {"measurement": "percentage decomposition", "setting": "[3]; 48 h, pH 7", "value": 0, "unit": "%"},
      {"measurement": "Digestible dry matter of diet, mean", "setting": "rats [1]", "value": 94.1, "unit": "%"}
    ]}
  ]
}
